Results taken from patent publication US20250313563A1, “GLYCOGEN SYNTHASE KINASE 3 INHIBITORS AND USES THEREOF” (The Broad Institute, Inc., priority 2022, published 2025).
Read-outs that look alike come from different tables or passages of the source.

Experiments:
[1] = biological target: GSK3b (GST-full length GSK3b) (Homo sapiens (Human), UniProt P49841); test: GSK3b TR-FRET kinase assay; type: biochemical
Method in brief: (§1)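 In this time-resolved FRET format, kinase reactions contained 200 nM biotinylated, S645-phosphorylated glycogen synthase 631-650 peptide and either isoform-specific ATP (2 μM GSK3b, 4 μM GSK3α) or 1 mM ATP. They were quenched with EDTA after 100 min at ambient temperature. Inhibition curves gave IC50 values.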

[2] = biological target: GSK3α (GST-full length GSK3α) (Homo sapiens (Human), UniProt P49840); test: GSK3α TR-FRET kinase assay; type: biochemical
Method in brief: as §1

[3] = 1 nM GSK3b, 2 μM ATP, 30 minute preincubation, geometric mean, read-out: GSK3-B TR-FRET BIOCHEMICAL (TR-FRET), GMean, IC50
[4] = 1 nM GSK3α, 4 μM ATP, 30 minute preincubation, geometric mean, read-out: GSK3-A TR-FRET BIOCHEMICAL (TR-FRET), GMean, IC50
[5] = read-out: GSK3-B (TR-FRET 1 mM ATP), GMean, IC50, 1 mM ATP, geometric mean
[6] = read-out: GSK3-A (TR-FRET 1 mM ATP), GMean, IC50, 1 mM ATP, geometric mean
[7] = 1 nM GSK3b, 2 μM ATP, 30 minute preincubation, Table 16, read-out: GSK3-B TR-FRET BIOCHEMICAL (TR-FRET)
[8] = 1 nM GSK3α, 4 μM ATP, 30 minute preincubation, Table 16, read-out: GSK3-A TR-FRET BIOCHEMICAL (TR-FRET)

GSK3α (GST-full length GSK3α), sequence (P49840 whole entry): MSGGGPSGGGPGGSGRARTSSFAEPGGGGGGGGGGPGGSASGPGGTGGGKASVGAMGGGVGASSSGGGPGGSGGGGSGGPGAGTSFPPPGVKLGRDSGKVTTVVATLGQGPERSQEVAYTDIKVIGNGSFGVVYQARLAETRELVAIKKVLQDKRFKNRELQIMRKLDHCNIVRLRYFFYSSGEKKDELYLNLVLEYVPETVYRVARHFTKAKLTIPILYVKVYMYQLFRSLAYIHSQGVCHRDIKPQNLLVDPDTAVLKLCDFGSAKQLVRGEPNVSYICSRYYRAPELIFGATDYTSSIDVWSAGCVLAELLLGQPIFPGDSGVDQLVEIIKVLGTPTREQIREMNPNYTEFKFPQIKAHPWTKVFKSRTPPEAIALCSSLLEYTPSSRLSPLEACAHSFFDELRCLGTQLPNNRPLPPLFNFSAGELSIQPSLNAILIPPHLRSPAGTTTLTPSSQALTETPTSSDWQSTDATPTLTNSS
GSK3b (GST-full length GSK3b), sequence (P49841 whole entry, canonical isoform): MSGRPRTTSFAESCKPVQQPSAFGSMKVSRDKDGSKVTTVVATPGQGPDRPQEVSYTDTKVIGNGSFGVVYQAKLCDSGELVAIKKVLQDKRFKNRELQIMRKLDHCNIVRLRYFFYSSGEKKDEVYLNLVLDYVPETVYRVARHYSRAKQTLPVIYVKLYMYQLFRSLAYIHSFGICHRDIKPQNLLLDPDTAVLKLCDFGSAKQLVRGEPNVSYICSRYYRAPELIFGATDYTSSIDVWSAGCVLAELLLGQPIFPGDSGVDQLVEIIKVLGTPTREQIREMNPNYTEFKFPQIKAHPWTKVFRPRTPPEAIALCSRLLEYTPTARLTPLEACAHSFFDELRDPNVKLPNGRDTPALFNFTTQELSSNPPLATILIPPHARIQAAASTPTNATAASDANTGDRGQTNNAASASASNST

SMILES	IC50 [1, 3] [µM]	IC50 [2, 4] [µM]	also measured
CC[C@@]1(c2cccc(N3CCOCC3)c2)C2=C(CC(C)(C)NC2=O)Nc2n[nH]c(C(F)(F)F)c21 [Compound 949013]	≤ 0.1	≤ 0.1	–
CCC1(c2cccc(C(F)(F)F)c2)C2=C(CCN(c3cccc(C)c3)C2=O)Nc2n[nH]cc21 (stereo not drawn) [Compound 949040]	0.1 to 1	≤ 0.1	–
CC[C@]1(c2cccc(C(F)(F)F)c2)C2=C(CCN(c3cccc(C)c3)C2=O)Nc2n[nH]cc21 [Compound 949041]	> 5	1 to 5	–
CCC1(c2cccc(C3CCCC3)c2)C2=C(CC(C)(C)CC2=O)Nc2n[nH]cc21 (stereo not drawn) [Compound 949082]	–	–	IC50 ([1]; 1 nM GSK3b, 2 μM ATP, 30 minute preincubation, Table 16, read-out: GSK3-B TR-FRET BIOCHEMICAL (TR-FRET), IC50): ≤ 0.1 µM; IC50 ([2]; 1 nM GSK3α, 4 μM ATP, 30 minute preincubation, Table 16, read-out: GSK3-A TR-FRET BIOCHEMICAL (TR-FRET), IC50): ≤ 0.1 µM
CC[C@]1(c2cccc(-c3cnn(CCOC)c3)c2)C2=C(CC(C)(C)NC2=O)Nc2n[nH]cc21 [Compound 949105]	0.1 to 1	≤ 0.1	–
CC[C@@]1(c2cccc(-c3cnn(C(C)(C)C)c3)c2)C2=C(CC(C)(C)NC2=O)Nc2n[nH]cc21 [Compound 949107]	> 5	> 5	–
CC[C@]1(c2cccc(-c3cc(OC)ncc3F)c2)C2=C(CC(C)(C)NC2=O)Nc2n[nH]cc21 [Compound 949109]	0.1 to 1	≤ 0.1	–
CCC1(c2cccc(-c3cn(C)nc3C(C)C)c2)C2=C(CC(C)(C)NC2=O)Nc2n[nH]cc21 (stereo not drawn) [Compound 949111]	1 to 5	0.1 to 1	–
CC[C@]1(c2cccc(-c3cnn(C(C)(C)C)c3)c2)C2=C(CC(C)(C)NC2=O)Nc2n[nH]cc21 [Compound 949112]	0.1 to 1	≤ 0.1	IC50 [1, 5]: > 5 µM; IC50 [2, 6]: > 5 µM
CC[C@]1(c2cccc(OCC(F)F)c2)C2=C(CC(C)(C)CC2=O)Nc2n[nH]cc21 [Compound 949113]	–	–	IC50 [1, 7]: > 5 µM; IC50 [2, 8]: 1 to 5 µM
CCC1(c2cccc(-c3cnn(CCOC)c3)c2)C2=C(CC(C)(C)NC2=O)Nc2n[nH]cc21 (stereo not drawn) [Compound 949114]	> 5	1 to 5	–
CCC1(c2cccc(-c3cc(OC)nc4ccccc34)c2)C2=C(CC(C)(C)NC2=O)Nc2n[nH]cc21 (stereo not drawn) [Compound 949116]	> 5	> 5	–
CC[C@@]1(c2cccc(C(F)(F)F)c2)C2=C(CCN(c3ccc(C)cc3)C2=O)Nc2n[nH]cc21 [Compound 949118]	0.1 to 1	≤ 0.1	–
CC[C@]1(c2cccc(C(F)(F)F)c2)C2=C(CCN(c3ccc(C)cc3)C2=O)Nc2n[nH]cc21 [Compound 949119]	> 5	1 to 5	–
CCC1(c2cccc(C(F)(F)F)c2)C2=C(CCN(c3cnc(OC)nc3)C2=O)Nc2n[nH]c(C)c21 (stereo not drawn) [Compound 949126]	0.1 to 1	≤ 0.1	–
CC[C@]1(c2cccc(C(F)(F)F)c2)C2=C(CCN(c3cnc(OC)nc3)C2=O)Nc2n[nH]cc21 [Compound 949127]	> 5	1 to 5	–
CCC1(c2cccc(C(F)(F)F)c2)C2=C(CCN(c3ccccc3C)C2=O)Nc2n[nH]cc21 (stereo not drawn) [Compound 949128]	0.1 to 1	≤ 0.1	–
CC[C@]1(c2cccc(C(F)(F)F)c2)C2=C(CCN(c3ccccc3C)C2=O)Nc2n[nH]cc21 [Compound 949129]	> 5	> 5	–
CCC1(c2cccc(C3CN(C(C)=O)C3)c2)C2=C(CC(C)(C)CC2=O)Nc2n[nH]cc21 (stereo not drawn) [Compound 949131]	–	–	IC50 [1, 7]: 1 to 5 µM; IC50 [2, 8]: 0.1 to 1 µM
CC[C@]1(c2cccc(C3CN(C(C)=O)C3)c2)C2=C(CC(C)(C)CC2=O)Nc2n[nH]cc21 [Compound 949132]	–	–	IC50 [1, 7]: > 5 µM; IC50 [2, 8]: > 5 µM
CCC1(c2cccc(-c3ccnc(C)c3)c2)C2=C(CC(C)(C)NC2=O)Nc2n[nH]c(C(F)F)c21 (stereo not drawn) [Compound 949169]	≤ 0.1	≤ 0.1	IC50 [1, 5]: 1 to 5 µM; IC50 [2, 6]: 0.1 to 1 µM
CCC1(c2cccc(-c3cn(C)nc3C)c2)C2=C(CC(C)(C)NC2=O)Nc2n[nH]c(C(F)F)c21 (stereo not drawn) [Compound 949170]	≤ 0.1	≤ 0.1	–
CCC1(c2cccc(-c3cnn(C)c3)c2)C2=C(CC(C)(C)NC2=O)Nc2n[nH]c(C(F)F)c21 (stereo not drawn) [Compound 949171]	≤ 0.1	≤ 0.1	IC50 [1, 5]: 1 to 5 µM; IC50 [2, 6]: ≤ 0.1 µM
CCC1(c2cccc(C(C)C)c2)C2=C(CC(C)(C)NC2=O)Nc2n[nH]c(C)c21 (stereo not drawn) [Compound 949173]	≤ 0.1	≤ 0.1	–
